{"source": "patent US11820773B2", "about": "“Tricyclic compounds” (ALIGOS THERAPEUTICS, INC., priority 2020, dated 2023)"}
{"test_system": "HBV", "assay": "HBV-DNA antiviral assay using HepG2.117 cells (intracellular HBV DNA by qPCR)", "assay_type": "cell-based, genotype D HBV", "settings": "HBV DNA inhibition, 3 days incubation, 2% DMSO", "outline": "(§1)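 HepG2.117 cells (stable genotype D HBV, Tet-off) seeded without doxycycline, treated next day with 9-point 4-fold dilutions in 2% DMSO for 3 days at 37° C. Intracellular HBV DNA quantified by qPCR against a standard curve; viability by CellTiter-Glo ATP. EC50, EC90, CC50 from variable-slope dose-response fits versus DMSO control.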", "units": {"EC50": "µM"}}
{"compound": "Cc1nn[nH]c1-c1ccc(-n2c(=O)c3c(n4ncc(Cc5ccccc5)c24)CN(C(=O)c2ccc(Br)c(C(F)(F)F)c2)CC3)cc1", "note": "[Compound 35, 5-benzyl-12-[4-bromo-3-(trifluoromethyl)benzoyl]-7-[4-(4-methyl-1H-triazol-5-yl)phenyl]-2,3,7,12-tetrazatricyclo[7.4.0.0^2,6]trideca-1(9),3,5-trien-8-one]", "EC50": "< 0.05"}
{"compound": "CNc1onc2cc(-n3c(=O)c4c(n5ncc(Cc6ccccc6)c35)CN(C(=O)c3ccc(Br)c(Cl)c3)CC4)ccc12", "note": "[Compound 6, 5-benzyl-12-(4-bromo-3-chloro-benzoyl)-7-[3-(methylamino)-2,1-benzoxazol-6-yl]-2,3,7,12-tetrazatricyclo[7.4.0.0^2,6]trideca-1(9),3,5-trien-8-one]", "EC50": "< 0.05"}
{"test_system": "HBV", "assay": "HBV-DNA antiviral assay using HepG2.117 cells (intracellular HBV DNA by qPCR)", "assay_type": "cell-based, genotype D HBV", "settings": "Hepatitis B virus, 72 h, HBV DNA inhibition, 3 days incubation, 2% DMSO", "outline": "as §1", "units": {"EC50": "µM"}}
{"compound": "Cc1nn[nH]c1-c1cc(-n2c(=O)c3c(n4ncc(Cc5ccccc5)c24)CN(C(=O)c2ccc(Br)c(C(F)(F)F)c2)[C@H](C)C3)nn1C", "note": "(stereo in doubt) [Compound 83a, rac-(11R)-5-benzyl-12-[4-bromo-3-(trifluoromethyl)benzoyl]-11-methyl-7-[1-methyl-5-(4-methyl-1H-triazol-5-yl)pyrazol-3-yl]-2,3,7,12-tetrazatricyclo[7.4.0.0^2,6]trideca-1(9),3,5-trien-8-one]", "EC50": "< 0.05"}
{"compound": "CC(C)Cc1cnn2c3c(c(=O)n(-c4ccc(-c5cnnn5C)cc4)c12)C[C@H](C)N(C(=O)c1ccc(Br)c(C(F)(F)F)c1)C3", "note": "(stereo in doubt) [Compound 102b, rac-(11S)-12-[4-bromo-3-(trifluoromethyl)benzoyl]-5-isobutyl-11-methyl-7-[4-(3-methyltriazol-4-yl)phenyl]-2,3,7,12-tetrazatricyclo[7.4.0.0^2,6]trideca-1(9),3,5-trien-8-one]", "EC50": "0.05 to 0.5"}
{"compound": "CNC(=O)c1cnc(-n2c(=O)c3c(n4ncc(CC(C)C)c24)CN(C(=O)c2ccc(Br)c(C(F)(F)F)c2)[C@H](C)C3)nc1", "note": "(stereo in doubt) [Compound 85a, N-methyl-2-[rac-(11R)-12-[4-bromo-3-(trifluoromethyl)benzoyl]-5-isobutyl-11-methyl-8-oxo-2,3,7,12-tetrazatricyclo[7.4.0.0^2,6]trideca-1(9),3,5-trien-7-yl]pyrimidine-5-carboxamide]", "EC50": "< 0.05"}
{"compound": "CNC(=O)c1ccc(-n2c(=O)c3c(n4ncc(CC5CC5)c24)CN(C(=O)c2ccc(Br)c(Cl)c2)[C@H](C)C3)cc1", "note": "(stereo in doubt) [Compound 22a, N-methyl-4-[rac-(11R)-12-[4-bromo-3-chlorobenzoyl]-5-(cyclopropylmethyl)-11-methyl-8-oxo-2,3,7,12-tetrazatricyclo[7.4.0.0^2,6]trideca-1(9),3,5-trien-7-yl]benzamide]", "EC50": "< 0.05"}
{"compound": "CNC(=O)c1ccc(-n2c(=O)c3c(n4ncc(CC(C)C)c24)CN(C(=O)c2ccc(Br)c(Cl)c2)[C@H](C)C3)cc1", "note": "(stereo in doubt) [Compound 55a, N-methyl-4-[rac-(11R)-12-(4-bromo-3-chloro-benzoyl)-5-isobutyl-11-methyl-8-oxo-2,3,7,12-tetrazatricyclo[7.4.0.0^2,6]trideca-1(9),3,5-trien-7-yl]benzamide]", "EC50": "< 0.05"}
{"compound": "Cc1nn[nH]c1-c1ccc(-n2c(=O)c3c(n4ncc(Cc5ccccc5)c24)CN(C(=O)c2ccc(Br)c(C(F)(F)F)c2)[C@H](C)C3)cc1", "note": "(stereo in doubt) [Compound 80a, rac-(11R)-5-benzyl-12-[4-bromo-3-(trifluoromethyl)benzoyl]-11-methyl-7-[4-(4-methyl-1H-triazol-5-yl)phenyl]-2,3,7,12-tetrazatricyclo[7.4.0.0^2,6]trideca-1(9),3,5-trien-8-one]", "EC50": "< 0.05"}
{"compound": "Cc1nnc(-c2ccc(-n3c(=O)c4c(n5ncc(Cc6ccccc6)c35)CN(C(=O)c3ccc(Cl)c(C(F)(F)F)c3)[C@H](C)C4)cc2)[nH]1", "note": "(stereo in doubt) [Compound 52a, rac-(11R)-5-benzyl-12-[4-chloro-3-(trifluoromethyl)benzoyl]-11-methyl-7-[4-(5-methyl-4H-1,2,4-triazol-3-yl)phenyl]-2,3,7,12-tetrazatricyclo[7.4.0.0^2,6]trideca-1(9),3,5-trien-8-one]", "EC50": "< 0.05"}
{"compound": "C[C@@H]1Cc2c(n3ncc(Cc4ccccc4)c3n(-c3ccc(-c4nn(C)c(=O)[nH]4)cc3)c2=O)CN1C(=O)c1ccc(Br)c(C(F)(F)F)c1", "note": "(stereo in doubt) [Compound 82a, rac-(11R)-5-benzyl-12-[4-bromo-3-(trifluoromethyl)benzoyl]-11-methyl-7-[4-(1-methyl-5-oxo-4H-1,2,4-triazol-3-yl)phenyl]-2,3,7,12-tetrazatricyclo[7.4.0.0^2,6]trideca-1(9),3,5-trien-8-one]", "EC50": "< 0.05"}
{"compound": "C[C@H]1Cc2c(n3ncc(CC4CC4)c3n(-c3ccc(-c4nncn4C)cc3)c2=O)CN1C(=O)c1ccc(Br)c(C(F)(F)F)c1", "note": "(stereo in doubt) [Compound 40b, rac-(11S)-12-[4-bromo-3-(trifluoromethyl)benzoyl]-5-(cyclopropylmethyl)-11-methyl-7-[4-(4-methyl-1,2,4-triazol-3-yl)phenyl]-2,3,7,12-tetrazatricyclo[7.4.0.0^2,6]trideca-1(9),3,5-trien-8-one]", "EC50": "0.05 to 0.5"}
{"compound": "C[C@H]1Cc2c(n3ncc(Cc4ccccc4)c3n(-c3ccc(-c4nn(C)c(=O)[nH]4)cc3)c2=O)CN1C(=O)c1ccc(Br)c(C(F)(F)F)c1", "note": "(stereo in doubt) [Compound 82b, rac-(11S)-5-benzyl-12-[4-bromo-3-(trifluoromethyl)benzoyl]-11-methyl-7-[4-(1-methyl-5-oxo-4H-1,2,4-triazol-3-yl)phenyl]-2,3,7,12-tetrazatricyclo[7.4.0.0^2,6]trideca-1(9),3,5-trien-8-one]", "EC50": "0.05 to 0.5"}
{"compound": "C[C@@H]1Cc2c(n3ncc(Cc4ccccc4)c3n(-c3ccc(-n4nnnc4C(F)(F)F)cc3)c2=O)CN1C(=O)c1ccc(Br)c(C(F)(F)F)c1", "note": "[Compound 87, 5-benzyl-12-[4-bromo-3-(trifluoromethyl)benzoyl]-11-methyl-7-[4-[5-(trifluoromethyl)tetrazol-1-yl]phenyl]-2,3,7,12-tetrazatricyclo[7.4.0.0^2,6]trideca-1(9),3,5-trien-8-one]", "EC50": "0.05 to 0.5"}
{"compound": "C#CCc1cnn2c3c(c(=O)n(-c4ccc(C(=O)NC)cc4)c12)CCN(C(=O)c1ccc(Br)c(C(F)(F)F)c1)C3", "note": "[Compound 42, 4-[12-[4-bromo-3-(trifluoromethyl)benzoyl]-8-oxo-5-prop-2-ynyl-2,3,7,12-tetrazatricyclo[7.4.0.0^2,6]trideca-1(9),3,5-trien-7-yl]-N-methyl-benzamide]", "EC50": "< 0.05"}
{"compound": "CNc1nsc2cc(-n3c(=O)c4c(n5ncc(Cc6ccccc6)c35)CN(C(=O)c3ccc(Br)c(Cl)c3)CC4)ccc12", "note": "[Compound 5, 5-benzyl-12-(4-bromo-3-chloro-benzoyl)-7-[3-(methylamino)-1,2-benzothiazol-6-yl]-2,3,7,12-tetrazatricyclo[7.4.0.0^2,6]trideca-1(9),3,5-trien-8-one]", "EC50": "< 0.05"}
{"compound": "CNC(=O)c1ccc(-n2c(=O)c3c(n4ncc(Cc5ccsc5)c24)CN(C(=O)c2ccc(Br)c(C(F)(F)F)c2)CC3)cc1", "note": "[Compound 20, 4-[12-[4-bromo-3-(trifluoromethyl)benzoyl]-8-oxo-5-(3-thienylmethyl)-2,3,7,12-tetrazatricyclo[7.4.0.0^2,6]trideca-1(9),3,5-trien-7-yl]-N-methyl-benzamide]", "EC50": "< 0.05"}
{"compound": "CC(C)Cc1cnn2c3c(c(=O)n(-c4ccc(-c5nncn5C)cc4)c12)C[C@@H](C)N(C(=O)c1ccc(Cl)c(C(F)(F)F)c1)C3", "note": "(stereo in doubt) [Compound 67a, rac-(11R)-12-[4-chloro-3-(trifluoromethyl)benzoyl]-5-isobutyl-11-methyl-7-[4-(4-methyl-1,2,4-triazol-3-yl)phenyl]-2,3,7,12-tetrazatricyclo[7.4.0.0^2,6]trideca-1(9),3,5-trien-8-one]", "EC50": "< 0.05"}
{"compound": "Cc1cnn(-c2ccc(-n3c(=O)c4c(n5ncc(CC(C)C)c35)CN(C(=O)c3ccc(Br)c(C(F)(F)F)c3)[C@@H](C)C4)cc2)n1", "note": "(stereo in doubt) [Compound 99b, rac-(11S)-12-[4-bromo-3-(trifluoromethyl)benzoyl]-5-isobutyl-11-methyl-7-[4-(4-methyltriazol-2-yl)phenyl]-2,3,7,12-tetrazatricyclo[7.4.0.0^2,6]trideca-1(9),3,5-trien-8-one]", "EC50": "0.5 to 5"}
{"compound": "C[C@H]1Cc2c(n3ncc(Cc4ccccc4)c3n(-c3ccc(-c4noc(=O)n4C)cc3)c2=O)CN1C(=O)c1ccc(Br)c(C(F)(F)F)c1", "note": "(stereo in doubt) [Compound 41b, 4-methyl-3-[4-[rac-(11S)-5-benzyl-12-[4-bromo-3-(trifluoromethyl)benzoyl]-11-methyl-8-oxo-2,3,7,12-tetrazatricyclo[7.4.0.0^2,6]trideca-1(9),3,5-trien-7-yl]phenyl]-1,2,4-oxadiazol-5-one]", "EC50": "0.05 to 0.5"}
{"compound": "C[C@H]1Cc2c(n3ncc(CC4CC4)c3n(-c3ccc(C(=O)N(C)CO)cc3)c2=O)CN1C(=O)c1ccc(Br)c(C(F)(F)F)c1", "note": "(stereo in doubt) [Compound 91, N-(hydroxymethyl)-N-methyl-4-[rac-(11S)-12-[4-bromo-3-(trifluoromethyl)benzoyl]-5-(cyclopropylmethyl)-11-methyl-8-oxo-2,3,7,12-tetrazatricyclo[7.4.0.0^2,6]trideca-1 (9),3,5-trien-7-yl]benzamide]", "EC50": "> 5"}
{"compound": "C[C@H]1Cc2c(n3ncc(CC4CCC4)c3n(-c3ccc(-c4nncn4C)cc3)c2=O)CN1C(=O)c1ccc(Br)c(C(F)(F)F)c1", "note": "(stereo in doubt) [Compound 45b, rac-(11S)-12-[4-bromo-3-(trifluoromethyl)benzoyl]-5-(cyclobutylmethyl)-11-methyl-7-[4-(4-methyl-1,2,4-triazol-3-yl)phenyl]-2,3,7,12-tetrazatricyclo[7.4.0.0^2,6]trideca-1(9),3,5-trien-8-one]", "EC50": "0.05 to 0.5"}
